For experiment [1], the target named is mTOR (Homo sapiens, UniProt P42345). The experiment can be described thus: Western blot for mTOR autophosphorylation at S2481 in cells treated with mTOR kinase inhibitors. Type of experiment: cell-based. To be noted: actively growing Hela and MDA-MB-468 cells; 1 h at 37° C. In general terms: In western blotting, separated proteins are transferred to a membrane and probed.
Procedure: (§4) Whole cell lysates were then analyzed for mTOR phosphorylation at S2481. Phosphorylation of the mTORC1 substrate S6K at T389 and the mTORC2 substrate Akt at S473 were analyzed as controls.

Experiment [2] relates to mTOR. The experiment is described as above. Format: cell-based. To be noted: actively growing MEFs, U2OS, Hela and MDA-MB-468 cells; 1 h at 37° C.
Procedure: as §4
Experiment [3] concerns Akt. Put plainly: Western blot for mTORC2 substrate Akt phosphorylated at S473 in cells treated with mTOR kinase inhibitors. The following applies: 1 h at 37° C.
Procedure: as §4
Experiment [4] concerns S6K. Put plainly: Western blot for mTORC1 substrate S6K phosphorylated at T389 in cells treated with mTOR kinase inhibitors. To be noted: 1 h at 37° C.
Procedure: as §4
Experiment [5] relates to mTOR. The experiment can be described thus: Immunoblot of whole cell lysates for mTOR phosphorylated on S2481 (rapamycin / insulin treatment). The following applies: serum-starved HEK293 cells; 200 nM insulin for 5 min. Type of experiment: cell-based.
Excerpt: Antibodies and reagents. The following antibodies were purchased from Cell Signaling Technology: phospho-mTOR(S2448 and S2481), Akt and phospho-Akt (S473) rabbit polyclonal antibodies. Phospho-S6K (T389) and mTOR (mTab1) rabbit polyclonal antibodies were purchased from Millipore. Rictor and mSin1 rabbit polyclonal antibodies were purchased from Bethyl Laboratories. The anti-Raptor rabbit antiserum was developed with the antibody service from Invitrogen utilizing the peptide [sequence], amino acid sequence 918-933 of human Raptor. Rapamycin was purchased from Sigma. Insulin and IGF-1 were purchased from Research Diagnostics, Inc.
Lentivirus-mediated gene knockdown. […]
Virus-containing supernatants were collected 48 hr. after transfection. Cells were infected twice in the presence of 1 μg/ml polybrene, selected for puromycin resistance and analyzed 48-72 hr. post-infection. […]
For experiment [6], the target named is T1, mTORC2 (Homo sapiens, UniProt P42345+P62942).
T1 construct: endogenous in cells; host or cells: HEK293, U2OS, MDA-MB-231, MDA-MB-468, SKBR3, A549
The experiment can be described thus: Rictor (and Raptor) immunoprecipitates analyzed by immunoblotting for bound mTOR (mTORC2 assembly). To be noted: serum-starved HEK293 cells; 200 nM insulin for 5 min. Format: cell-based. The source says: (§1) Antibodies and reagents. The following antibodies were purchased from Cell Signaling Technology: phospho-mTOR(S2448 and S2481), Akt and phospho-Akt (S473) rabbit polyclonal antibodies. Phospho-S6K (T389) and mTOR (mTab1) rabbit polyclonal antibodies were purchased from Millipore. Rictor and mSin1 rabbit polyclonal antibodies were purchased from Bethyl Laboratories. The anti-Raptor rabbit antiserum was developed with the antibody service from Invitrogen utilizing the peptide […], amino acid sequence 918-933 of human Raptor. Rapamycin was purchased from Sigma. Insulin and IGF-1 were purchased from Research Diagnostics, Inc.
(§2) Cell culture, cell lysis and immunoprecipitation. […]
(§3) Cells were rinsed 2× with cold PBS and lysed in 1 ml 50 mM Hepes pH 7.5, 150 mM NaCl, 10% glycerol, 0.3% Chaps (v/v), 1.5 mM MgCl2, 1 mM EGTA, 100 mM NaF, 500 μM sodium orthovanadate, 10 μg/ml aprotinin, and 10 μg/ml leupeptin per 10 cm tissue culture dish. […] Protein concentrations were determined using the Bio-Rad DC Protein Assay kit according to manufacturer's protocol. […]
Because S2481 phosphorylation requires intact mTORC2, we tested whether prolonged rapamycin treatment had any effect on S2481 phosphorylation. Whole cell lysates from control and insulin-stimulated cells treated with 100 nM rapamycin for either one or 24 hr were analyzed for phosphorylation of mTOR on S2448 and S2481. […]

In experiment [7] the target is T2, mTOR (Homo sapiens, UniProt P42345+P62942).
T2 construct: specifically deplete endogenous mTOR, Rictor or Raptor were expressed in HEK293 cells; endogenous in cells
The experiment can be described thus: Immunoblot of whole cell lysates for mTOR phosphorylated on S2448 (rapamycin / insulin treatment). Type of experiment: cell-based. The following applies: serum-starved HEK293 cells; 200 nM insulin for 5 min.
Excerpt: as §1, §2, §3
Because S2481 phosphorylation requires intact mTORC2, we tested whether prolonged rapamycin treatment had any effect on S2481 phosphorylation. Whole cell lysates from control and insulin-stimulated cells treated with 100 nM rapamycin for either one or 24 hr were analyzed for phosphorylation of mTOR on S2448 and S2481.

Experiment [8] relates to breast cancer. To be noted: unselected breast cancer patients; cited from earlier work.
For experiment [9], the system named is ER positive breast cancer. To be noted: ER positive breast cancer patients; randomized trial, endocrine therapy plus everolimus; cited from earlier work.
The mark [10] stands for this setting: actively growing Hela and MDA-MB-468 cells.
Setting [11] is: actively growing MEFs, U2OS, Hela and MDA-MB-468 cells.

These results are taken from patent US20100248265A1, “COMPOSITIONS AND METHODS FOR DIAGNOSIS AND TREATMENT OF CANCER” (The Salk Institute for Biological Studies, priority 2009, published 2010).

With `COc1ccc2c(c1OC)N=C(NC(=O)c1cccnc1)N1CCN=C21` [PIK-90], in experiment [1], the “mTOR autophosphorylation at S2481” value is reported as “reduction”.

Turning to `CC(C)n1nc(-c2cc3cc(O)ccc3[nH]2)c2c(N)ncnc21` [PP242], the “mTOR autophosphorylation at S2481” value in [2] is “abolished”. Further, the “phosphorylation of mTORC2 substrate Akt at S473” value in experiment [3] (setting [10]) and in experiment [3] (setting [11]) was “inhibited” each time. In addition, the “phosphorylation of mTORC1 substrate S6K at T389” value in experiment [4] (setting [10]) and in experiment [4] (setting [11]) was “inhibited” in each case.

“insulin: growth factor used to stimulate serum-starved cells; purchased from Research Diagnostics, Inc.”: the “S2481 phosphorylation of mTOR” value in experiment [5] is “increased”. For the same compound, the “amount of mTOR associated with either Raptor or Rictor” value in [6] is given as “did not change”. For the same compound, the “S2448 phosphorylation of mTOR” value in [7] is recorded as “increased”.

In the case of `CO[C@H]1C[C@@H]2CC[C@@H](C)[C@@](O)(O2)C(=O)C(=O)N2CCCC[C@H]2C(=O)O[C@H]([C@H](C)C[C@@H]2CC[C@@H](OC(=O)C(C)(CO)CO)[C@H](OC)C2)CC(=O)[C@H](C)/C=C(\C)[C@@H](O)[C@@H](OC)C(=O)[C@H](C)C[C@H](C)/C=C/C=C/C=C/1C` [temsirolimus], the “patients who responded to treatment” value in [8] is 10%.

With `CO[C@H]1C[C@@H]2CC[C@@H](C)[C@@](O)(O2)C(=O)C(=O)N2CCCC[C@H]2C(=O)O[C@H]([C@H](C)C[C@@H]2CC[C@@H](OCCO)[C@H](OC)C2)CC(=O)[C@H](C)/C=C(\C)[C@@H](O)[C@@H](OC)C(=O)[C@H](C)C[C@H](C)/C=C/C=C/C=C/1C` [everolimus], the “effect on efficacy of endocrine therapy” value in [9] is given as “significantly increases the efficacy of endocrine therapy”.

`CCC(=O)N1CCN(c2ccc(-n3c(=O)ccc4cnc5ccc(-c6cnc7ccccc7c6)cc5c43)cc2C(F)(F)F)CC1` [Torin1]: in experiment [2], the “mTOR autophosphorylation at S2481” value is on record as “abolished”. Moreover, the “phosphorylation of mTORC2 substrate Akt at S473” value in experiment [3] (setting [10]) and in [3] (setting [11]) was “inhibited” throughout. For the same compound, the “phosphorylation of mTORC1 substrate S6K at T389” value in experiment [4] (setting [10]) and in experiment [4] (setting [11]) was “inhibited” in each case.
